Source: patent US20100249048A1, “BETA GLYCOLIPIDS FOR THE TREATMENT OF CALCIFICATION RELATED DEGENERATIVE DISORDERS” (priority 2007, published 2010)

Legend:
TNF-α = TNF-α levels in supernatants of myofibroblasts; assay type: cell-based, rat; settings: myofibroblasts treated with foscarnet; 69 pg/ml without
Text: (§1) In order to investigate whether the beneficial effect of foscarnet on the calcification process also affects immunomodulatory parameters, the inventors the effect of foscarnet on the levels of cytokines that are known as having a role in osteoblast transformation and maturation. Therefore, levels of TNF-α and IL-6 were next measured in supernatants of myofibroblasts treated with foscarnet. […] IL-6 levels.

[1] = test system: high Adenine, high phosphate rat model; assay: MSCT assessment of valve calcification (Agatston score), foscarnet study; assay type: in vivo; settings: 5 mg/kg foscarnet i.p. (group B) vs diet group A, ninth week, P=0.05
Protocol: MSCT scanning without contrast was performed on all rats (Brilliance, Philips Medical Systems, Groningen, Netherlands) on the ninth week. Study parameters were: 120 KVp, 300 mAs, slice thickness 0.67 mm, increment 0.3 mm. The scan was analyzed by an operator blinded to the study groups, on an off-line CT workstation. The Agatston Score was calculated by multiplying the area of a calcified lesion with a weighted CT attenuation score dependent on the maximal CT attenuation (HU) within a lesion as previously described [Agatston, A. S., et al. Journal of the American College of Cardiology 15:827-832 (1990)]. In order to asses the effect of foscarnet on treating AVC in vivo, the high Adenine, high phosphate rat model was used. Three different groups (10 rats each) were fed daily with the Adenine diet (diet group) for 6 weeks (Group A). Group B (n=9) followed the same protocol and was also treated with 5 mg/kg foscarnet administered intraperitoneally (i.p.). The control group C, received daily chew. Renal function tests, electrolytes were followed for nine weeks. Multislice computed tomography (MSCT) was performed at the ninth week. Calcium scores were calculated using the Agatston score.

valve myofibroblasts = assay: Von Kossa staining of cultured valve myofibroblasts (calcification / mineralization); assay type: cell-based, rat; settings: for osteogenic differentiation and calcification of valve myofibroblasts (Von kossa staining): 1, 10 or 100 μg/ml, fourteen days
Protocol: The present inventors have now further explored the calcification process in an attempt to specifically identify targets for interfering and prevention thereof. Therefore, the inventors next examined myofibroblasts obtained from the aortic valve of wild type rats, cultured in 24 well plates.
Myofibroblasts were incubated with PTH ([…]), or phosphate, 1, 10 or 100 μg/ml) for fourteen days. As shown by the Von kossa (calcium) staining presented by FIG. 7, the phosphate treatment, but not the PTH, induces osteogenic differentiation and calcification of valve myofibroblasts.
To test the possibility that inhibition of PIT1 would decrease mineralization, valve myofibroblasts were incubated with 10 μg/ml phosphate, or with phosphate and 0.5 mM foscarnet, the specific PIT1 inhibitor for 7 days.

IL-6 = IL-6 levels in supernatants of myofibroblasts; assay type: cell-based, rat; settings: myofibroblasts treated with foscarnet
Text: as §1

| Molecule | TNF-α levels in supernatants (TNF-α) [pg/mL] | AVC, Agatston score (MSCT) [1] | AVC, Agatston score (MSCT) ([1]; listed as Forscarnet) | cell mineralization (Von kossa staining) (valve myofibroblasts; 10 μg/ml phosphate plus 0.5 mM foscarnet, 7 days) | IL-6 levels in supernatants (IL-6) | osteogenic differentiation and calcification of valve myofibroblasts (Von kossa staining) (valve myofibroblasts) |
| --- | --- | --- | --- | --- | --- | --- |
| O=C(O)P(=O)(O)O [foscarnet] | 5 | 21 | significant decrease | completely inhibited | no effect | – |
| phosphate | – | – | – | – | – | induces |
| PTH: peptide hormone, the most important regulator of calcium and phosphate metabolism (peptide, UniProt P01270 32-115, looked up, Parathyroid hormone) Parathyroid hormone: SVSEIQLMHNLGKHLNSMERVEWLRKKLQDVHNFVALGAPLAPRDAGSQRPRKKEDNVLVESHEKSLGEADKADVNVLTKAKSQ | – | – | – | – | – | not |
